Results: patent publication US20090270444A1, “1,7-Naphthyridines” (priority 2004, published 2009)

Tests used:
Format in all cases: biochemical
PDE6 = target: T1, PDE6 (Bos taurus, UniProt P11541+P23439); test: PDE6 IMAP fluorescence polarisation assay; conditions: PDE6 from bovine retina; accurate to within ±0.5; read-out: PDE6 mean pIC50 (converted)
T1 construct: PDE6 may be purified from bovine retina; from tissue; host or cells: bovine retina
T1 sequence (P11541 2-856 limits assumed): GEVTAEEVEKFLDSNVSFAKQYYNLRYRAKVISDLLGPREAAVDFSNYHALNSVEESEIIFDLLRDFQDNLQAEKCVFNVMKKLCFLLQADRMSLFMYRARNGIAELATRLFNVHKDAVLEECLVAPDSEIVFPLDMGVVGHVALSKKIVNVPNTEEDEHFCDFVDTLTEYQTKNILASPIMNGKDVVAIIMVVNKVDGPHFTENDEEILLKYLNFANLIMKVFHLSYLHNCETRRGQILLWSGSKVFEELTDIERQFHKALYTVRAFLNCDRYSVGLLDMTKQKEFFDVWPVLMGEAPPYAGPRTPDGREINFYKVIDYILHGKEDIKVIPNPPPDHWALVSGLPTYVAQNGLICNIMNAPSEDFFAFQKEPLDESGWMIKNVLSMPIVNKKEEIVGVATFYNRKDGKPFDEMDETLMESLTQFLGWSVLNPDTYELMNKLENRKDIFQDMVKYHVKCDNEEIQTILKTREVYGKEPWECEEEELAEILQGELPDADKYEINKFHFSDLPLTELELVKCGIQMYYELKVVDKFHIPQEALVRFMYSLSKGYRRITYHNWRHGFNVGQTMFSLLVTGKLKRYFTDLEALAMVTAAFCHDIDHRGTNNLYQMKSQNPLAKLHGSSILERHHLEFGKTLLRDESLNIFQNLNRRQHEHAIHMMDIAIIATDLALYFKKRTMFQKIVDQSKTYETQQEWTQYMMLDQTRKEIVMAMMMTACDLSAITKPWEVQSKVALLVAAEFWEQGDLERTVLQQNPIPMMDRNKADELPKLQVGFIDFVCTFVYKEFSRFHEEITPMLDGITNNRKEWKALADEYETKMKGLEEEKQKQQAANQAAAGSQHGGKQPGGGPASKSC
T1 sequence (P23439 2-850 limits assumed): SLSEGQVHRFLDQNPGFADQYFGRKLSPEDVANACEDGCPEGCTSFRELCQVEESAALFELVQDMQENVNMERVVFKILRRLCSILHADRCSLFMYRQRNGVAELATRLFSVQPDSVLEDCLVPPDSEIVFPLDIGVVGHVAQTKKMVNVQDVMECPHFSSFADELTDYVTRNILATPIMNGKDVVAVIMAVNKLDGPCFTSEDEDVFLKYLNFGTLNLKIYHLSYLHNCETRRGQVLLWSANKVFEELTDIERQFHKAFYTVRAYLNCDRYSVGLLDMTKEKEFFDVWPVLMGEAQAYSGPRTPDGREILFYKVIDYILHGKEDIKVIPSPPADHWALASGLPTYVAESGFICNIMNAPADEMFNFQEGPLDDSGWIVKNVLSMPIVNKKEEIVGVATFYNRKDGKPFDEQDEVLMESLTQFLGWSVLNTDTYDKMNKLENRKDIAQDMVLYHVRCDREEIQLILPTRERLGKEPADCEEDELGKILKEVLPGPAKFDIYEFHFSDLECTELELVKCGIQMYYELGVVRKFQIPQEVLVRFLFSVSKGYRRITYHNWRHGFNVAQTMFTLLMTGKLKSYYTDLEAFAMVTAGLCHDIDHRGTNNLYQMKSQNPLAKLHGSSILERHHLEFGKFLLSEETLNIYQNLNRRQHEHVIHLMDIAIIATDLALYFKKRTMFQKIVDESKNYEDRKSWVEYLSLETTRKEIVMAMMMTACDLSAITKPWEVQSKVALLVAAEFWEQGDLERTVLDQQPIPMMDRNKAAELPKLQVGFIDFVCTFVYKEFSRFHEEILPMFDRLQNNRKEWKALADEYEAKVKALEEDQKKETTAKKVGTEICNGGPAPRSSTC
Text: PDE6 may be purified from bovine retina as described by: P. Catty and P. Deterre, “Activation and solubilization of the retinal cGMP-specific phosphodiesterase by limited proteolysis”, Eur. J. Biochem., 1991, 199, 263-269; A. Tar et al. “Purification of bovine retinal cGMP phosphodiesterase”, Methods in Enzymology, 1994, 238, 3-12; and/or D. Srivastava et al. “Effects of magnesium on cyclic GMP hydrolysis by the bovine retinal rod cyclic GMP phosphodiesterase”, Biochem. J., 1995, 308, 653-658.
(§1) The ability of compounds to inhibit PDE catalytic activity was determined by IMAP Fluorescence Polarisation (FP) assay (Molecular Devices Ltd code: R8062) in 384-well format. Test compounds (small volume, e.g. 0.5 μl, of solution in DMSO) were preincubated at ambient temperature in black 384-well microtitre plates (supplier: NUNC, code 262260) with PDE enzyme in 10 mM Tris-HCl buffer pH 7.2, 10 mM MgCl2, 0.1% (w/v) bovine serum albumin, 0.05% NaN3 for 10-30 minutes. The enzyme level was set so that reaction was linear throughout the incubation.
(§2) For the PDE3, PDE4B and PDE4D assays Fluorescein adenosine 3′,5′-cyclic phosphate (Molecular Devices Ltd code: R7091) was added to give ˜40 nM final concentration. For the PDE5 and PDE6 assays Fluorescein guanosine 3′,5′-cyclic phosphate (Molecular Devices Ltd code: R7090) was added to give ˜40 nM final concentration. Plates were mixed on an orbital shaker for 10 seconds and incubated at ambient temperature for 40 minutes. IMAP binding reagent (Molecular Devices Ltd code: R7207) was added (60 μl of a 1 in 400 dilution in binding buffer of the kit stock solution) to terminate the assay. Plates were allowed to stand at ambient temperature for 1 hour. The FP ratio of parallel to perpendicular light was measured using an Analyst™ plate reader (from Molecular Devices Ltd). […] Curves were analysed using ActivityBase and XLfit (ID Business Solutions Limited). Results were expressed as pIC50 values.

Human recombinant PDE5 = Human recombinant PDE5 (Homo sapiens, UniProt O76074); test: PDE5 IMAP fluorescence polarisation assay; conditions: accurate to within ±0.5, read-out: PDE5 mean pIC50 (converted)
Experimental: Human recombinant PDE5 is disclosed in K. Loughney et al., “Isolation and characterisation of cDNAs encoding PDE5A, a human cGMP-binding, cGMP-specific 3′,5′-cyclic nucleotide phosphodiesterase”, Gene, 1998, 216, 139-147.
as §1, §2

Human recombinant PDE4D = Human recombinant PDE4D (Homo sapiens, UniProt Q08499); test: PDE4D IMAP fluorescence polarisation assay; conditions: human recombinant PDE4D (HSPDE4D3A); accurate to within ±0.5; read-out: PDE4D mean pIC50 (converted)
Experimental: Human recombinant PDE4D (HSPDE4D3A) is disclosed in P. A. Baecker et al., “Isolation of a cDNA encoding a human rolipram-sensitive cyclic AMP phoshodiesterase (PDE IVD)”, Gene, 1994, 138, 253-256.
as §1, §2

Human recombinant PDE4B = target: T2, Human recombinant PDE4B (Homo sapiens, UniProt Q07343); test: PDE4B IMAP fluorescence polarisation assay; conditions: human recombinant PDE4B (HSPDE4B2B); accurate to within ±0.5; read-out: PDE4B mean pIC50 (converted)
T2 construct: made in house; host or cells: Saccharomyces cerevisiae strain GL62
Text: Human recombinant PDE4B, in particular the 2B splice variant thereof (HSPDE4B2B), is disclosed in WO 94/20079 and also in M. M. McLaughlin et al., “A low Km, rolipram-sensitive, cAMP-specific phosphodiesterase from human brain: cloning and expression of cDNA, biochemical characterisation of recombinant protein, and tissue distribution of mRNA”, J. Biol. Chem., 1993, 268, 6470-6476. For example, in Example 1 of WO 94/20079, human recombinant PDE4B is described as being expressed in the PDE-deficient yeast Saccharomyces cerevisiae strain GL62, e.g. after induction by addition of 150 uM CuSO4, and 100,000×g supernatant fractions of yeast cell lysates are described for use in the harvesting of PDE4B enzyme.
as §1
as §2, with “Plates were allowed to stand at ambient temperature for 1 hour.” left out

T2 sequence (Q07343 1-564 isoform Q07343-2): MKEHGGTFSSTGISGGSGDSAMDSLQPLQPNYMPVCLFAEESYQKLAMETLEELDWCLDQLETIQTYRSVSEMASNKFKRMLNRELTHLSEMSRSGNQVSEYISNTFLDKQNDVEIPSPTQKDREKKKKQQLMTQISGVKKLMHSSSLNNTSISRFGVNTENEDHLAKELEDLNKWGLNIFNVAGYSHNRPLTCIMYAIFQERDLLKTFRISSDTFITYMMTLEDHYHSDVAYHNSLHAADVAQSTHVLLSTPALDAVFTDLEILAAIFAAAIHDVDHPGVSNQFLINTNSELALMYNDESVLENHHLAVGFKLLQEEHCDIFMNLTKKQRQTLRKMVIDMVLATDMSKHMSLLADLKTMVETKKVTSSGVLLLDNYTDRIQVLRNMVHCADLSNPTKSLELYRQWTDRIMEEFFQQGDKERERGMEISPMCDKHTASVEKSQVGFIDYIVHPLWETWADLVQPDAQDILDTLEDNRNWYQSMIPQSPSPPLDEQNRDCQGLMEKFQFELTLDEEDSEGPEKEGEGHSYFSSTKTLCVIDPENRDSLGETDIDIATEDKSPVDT
Chain of Human recombinant PDE4D (Q08499 1-673 isoform Q08499-2): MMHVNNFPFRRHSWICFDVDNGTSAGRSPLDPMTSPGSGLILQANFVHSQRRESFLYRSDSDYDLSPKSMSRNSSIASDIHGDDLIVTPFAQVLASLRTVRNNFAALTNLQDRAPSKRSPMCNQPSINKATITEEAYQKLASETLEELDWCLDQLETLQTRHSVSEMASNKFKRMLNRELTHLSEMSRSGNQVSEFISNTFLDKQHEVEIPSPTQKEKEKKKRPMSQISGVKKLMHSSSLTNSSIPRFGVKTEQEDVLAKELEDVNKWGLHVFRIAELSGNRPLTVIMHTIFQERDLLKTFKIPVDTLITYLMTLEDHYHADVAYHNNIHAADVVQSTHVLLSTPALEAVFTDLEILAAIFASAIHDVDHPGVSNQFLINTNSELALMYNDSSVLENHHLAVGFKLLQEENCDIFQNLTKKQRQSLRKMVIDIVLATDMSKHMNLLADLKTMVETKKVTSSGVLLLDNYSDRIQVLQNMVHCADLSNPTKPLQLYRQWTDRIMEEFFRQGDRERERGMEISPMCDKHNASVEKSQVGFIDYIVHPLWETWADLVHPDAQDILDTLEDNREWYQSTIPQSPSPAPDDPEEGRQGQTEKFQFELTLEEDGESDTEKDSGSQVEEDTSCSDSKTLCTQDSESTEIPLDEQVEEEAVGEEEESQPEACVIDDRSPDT

Row | IC50 (PDE6) [nM] | IC50 (Human recombinant PDE5) [nM] | IC50 (Human recombinant PDE4D) [nM] | IC50 (Human recombinant PDE4B) [nM] | Structure (SMILES)
1 | > 10000 | > 10000 | 0.2 | 0.126 | Cc1nc(S(C)(=O)=O)cc2c(Nc3cccc4c3CCO4)c(C(N)=O)cnc12 [Example 2, 4-(2,3-Dihydro-1-benzofuran-4-ylamino)-8-methyl-6-(methylsulfonyl)-1,7-naphthyridine-3-carboxamide]
2 | > 10000 | > 10000 | 0.631 | 0.398 | Cc1nc([S+](C)[O-])cc2c(Nc3cccc4c3CCO4)c(C(N)=O)cnc12 (racemic) [Example 3, (±)-4-(2,3-Dihydro-1-benzofuran-4-ylamino)-8-methyl-6-(methylsulfinyl)-1,7-naphthyridine-3-carboxamide]
3 | > 10000 | > 10000 | 0.316 | 0.316 | CSc1cc2c(Nc3cccc4c3CCO4)c(C(N)=O)cnc2c(C)n1 [Example 1, 4-(2,3-Dihydro-1-benzofuran-4-ylamino)-8-methyl-6-(methylthio)-1,7-naphthyridine-3-carboxamide]
